Key:
Assay type in all cases: cell-based
[1] = target: T1, human full length TRKC (Homo sapiens, UniProt Q16288); assay: TRKC degradation in NIH3T3-TRKC cells (Western blot); conditions: 0.1 nM to 1000 nM, 16 hours, Western blot (FIG. 4C)
T1 construct: lentivirus directing expression of human full length TRKB or TRKC; expressed in transfected cells; host or cells: NIH3T3 cells, lentiviral transduction, puromycin selection
Experimental: (§1) NIH3T3 cells were infected with lentivirus directing expression of human full length TRKB or TRKC. Cells were then selected using 1 ug/ml puromycin to establish NIH3T3-TRKB and NIH3T3-TRKC cell lines that stably expressed human TRKB or TRKC, respectively.
(§2) HEL cells expressing endogenous TRKA, and NIH3T3-TRKB and NIH3T3-TRKC cells prepared as described above were treated with heterobifunctional compound CPD-031 at 0.1 nM, 1 nM, 10 nM, 100 nM and 1000 nM for 16 hours.
(§3) Cultured cells were washed with cold PBS once and lysed in cold RIPA buffer supplemented with protease inhibitors and phosphatase inhibitors (Beyotime Biotechnology). The solutions were then incubated at 4° C. for 30 minutes with gentle agitation to fully lyse cells. Cell lysates were centrifuged at 13,000 rpm for 10 minutes at 4° C. and pellets were discarded. Total protein concentrations in the lysates were determined by BCA assays (Beyotime Biotechnology). Cell lysates were mixed with Laemmli loading buffer to 1× and heated at 99° C. for 5 min. Proteins were resolved on SDS-PAGE and visualized by chemiluminescence. Images were taken by a ChemiDoc MP Imaging system (Bio-Rad). Protein bands were quantitated using the software provided by Bio-Rad.

[2] = target: T2, human full length TRKB (Homo sapiens, UniProt Q16620); assay: TRKB degradation in NIH3T3-TRKB cells (Western blot); conditions: 0.1 nM to 1000 nM, 16 hours, Western blot (FIG. 4B)
T2 construct: lentivirus directing expression of human full length TRKB or TRKC; expressed in transfected cells; host or cells: NIH3T3 cells, lentiviral transduction, puromycin selection
T2 sequence (Q16620 32-822): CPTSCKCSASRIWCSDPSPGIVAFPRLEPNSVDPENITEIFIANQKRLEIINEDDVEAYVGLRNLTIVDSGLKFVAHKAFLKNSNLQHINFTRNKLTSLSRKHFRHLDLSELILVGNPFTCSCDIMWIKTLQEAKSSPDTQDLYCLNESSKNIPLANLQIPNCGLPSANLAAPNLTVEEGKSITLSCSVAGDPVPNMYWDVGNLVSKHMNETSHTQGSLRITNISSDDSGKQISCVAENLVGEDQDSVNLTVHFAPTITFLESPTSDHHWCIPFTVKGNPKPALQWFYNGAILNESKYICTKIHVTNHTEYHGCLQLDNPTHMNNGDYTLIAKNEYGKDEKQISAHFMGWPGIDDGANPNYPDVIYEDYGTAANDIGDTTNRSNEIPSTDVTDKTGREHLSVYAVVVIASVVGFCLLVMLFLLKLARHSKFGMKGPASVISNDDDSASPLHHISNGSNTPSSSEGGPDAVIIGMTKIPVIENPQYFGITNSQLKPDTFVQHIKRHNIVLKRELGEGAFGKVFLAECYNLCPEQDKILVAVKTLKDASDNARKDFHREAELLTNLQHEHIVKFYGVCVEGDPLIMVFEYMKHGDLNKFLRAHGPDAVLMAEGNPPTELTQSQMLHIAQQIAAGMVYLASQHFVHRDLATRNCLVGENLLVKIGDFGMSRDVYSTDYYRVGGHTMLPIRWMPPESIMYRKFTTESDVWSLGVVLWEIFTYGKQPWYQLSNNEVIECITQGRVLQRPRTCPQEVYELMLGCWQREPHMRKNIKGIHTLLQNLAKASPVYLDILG
Experimental: as §1, §2, §3

[3] = tested on: KM12 cells; assay: KM12 cell viability assay (CellTiter-Glo); conditions: Homo sapiens, 72 h; KM12 cells, 3 days, CellTiter-Glo
How it was run: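 KM12 cells, 5000 per well, treated 3 days with 11-point 3-fold serial dilutions of heterobifunctional compounds. Viability by CellTiter-Glo luminescence, normalized to untreated cells; IC50 from least-squares nonlinear regression.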

[4] = tested on: TRKA G595R mutated KM12 cells; assay: Cell viability assay in TRKA G595R mutated KM12 cells (CellTiter-Glo); conditions: Homo sapiens, 72 h, 3 days
Experimental: KM12, TRKA G595R mutated KM12, HEL, and other cells were cultured at 37° C. with 5% CO2 in DMEM or RPMI 1640 Medium supplemented with 10% fetal bovine serum. Cells were authenticated using the short tandem repeat (STR) assays. Mycoplasma test results were negative.
Cells were seeded at a density of 5000 cells per well in 96-well assay plates and treated with test compounds following a 11-point 3-fold serial dilution. Three days later, cell viability was determined using the CellTiter-Glo assay kit (Promega) according to the manufacturer's instructions. The dose-response curves were determined and IC50 values were calculated using the GraphPad Prism software following a nonlinear regression (least squares fit) method.
The activities of selected compounds on cell viability (IC50 values) and TMP3-TRKA degradation (percentage degradation at 10 nM) in KM12 cells or KM12-G595R mutated KM12 cells (KM12-G595R) are listed in Table 2.

[5] = target: T3, wildtype TRKA protein (Homo sapiens, UniProt P04629); assay: Wildtype TRKA degradation in HEL cells (Western blot); conditions: 0.1 nM to 1000 nM, 16 hours, Western blot (FIG. 4A)
T3 construct: HEL cells expressing endogenous TRKA; endogenous in cells; host or cells: HEL erythroleukemia cells
T3 sequence (P04629 33-796): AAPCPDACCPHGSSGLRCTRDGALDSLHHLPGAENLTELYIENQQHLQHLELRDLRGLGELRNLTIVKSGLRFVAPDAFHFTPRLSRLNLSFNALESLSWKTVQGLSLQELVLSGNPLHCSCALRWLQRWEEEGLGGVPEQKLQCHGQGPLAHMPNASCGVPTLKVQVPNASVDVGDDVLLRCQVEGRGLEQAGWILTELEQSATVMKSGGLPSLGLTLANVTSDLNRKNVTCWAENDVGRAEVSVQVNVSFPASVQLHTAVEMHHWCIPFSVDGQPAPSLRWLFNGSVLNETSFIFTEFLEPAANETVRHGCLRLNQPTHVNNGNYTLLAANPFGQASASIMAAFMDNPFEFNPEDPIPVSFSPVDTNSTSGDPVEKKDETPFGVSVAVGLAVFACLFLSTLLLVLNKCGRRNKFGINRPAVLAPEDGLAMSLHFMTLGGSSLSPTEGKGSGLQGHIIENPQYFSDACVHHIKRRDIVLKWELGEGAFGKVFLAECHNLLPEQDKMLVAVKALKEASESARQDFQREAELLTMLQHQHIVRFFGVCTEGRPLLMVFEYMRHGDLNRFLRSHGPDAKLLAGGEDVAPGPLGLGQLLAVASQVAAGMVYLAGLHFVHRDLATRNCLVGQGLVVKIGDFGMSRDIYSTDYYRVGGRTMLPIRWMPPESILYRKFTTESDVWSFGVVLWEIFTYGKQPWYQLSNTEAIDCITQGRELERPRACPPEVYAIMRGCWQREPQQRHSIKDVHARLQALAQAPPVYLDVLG
Experimental: HEL cells were treated with heterobifunctional compounds CPD-019 and CPD-002 at 10 nM or 100 nM for 16 hours.
as §2, §3

[6] = target: T4, TPM3-TRKA fusion protein (Homo sapiens, UniProt P04629); assay: TPM3-TRKA degradation in KM12 cells (Western blot); conditions: 16 hours, TRK protein, immunoblot
T4 construct: TPM3 (N-terminal part of tropomyosin alpha-3, natural fusion partner); endogenous in cells; host or cells: KM12 colon cancer cells; the other entry of the earlier key: TPM3 (P06753, Tropomyosin alpha-3 chain)
T4 sequence (P04629 with tags, fused parts or gaps): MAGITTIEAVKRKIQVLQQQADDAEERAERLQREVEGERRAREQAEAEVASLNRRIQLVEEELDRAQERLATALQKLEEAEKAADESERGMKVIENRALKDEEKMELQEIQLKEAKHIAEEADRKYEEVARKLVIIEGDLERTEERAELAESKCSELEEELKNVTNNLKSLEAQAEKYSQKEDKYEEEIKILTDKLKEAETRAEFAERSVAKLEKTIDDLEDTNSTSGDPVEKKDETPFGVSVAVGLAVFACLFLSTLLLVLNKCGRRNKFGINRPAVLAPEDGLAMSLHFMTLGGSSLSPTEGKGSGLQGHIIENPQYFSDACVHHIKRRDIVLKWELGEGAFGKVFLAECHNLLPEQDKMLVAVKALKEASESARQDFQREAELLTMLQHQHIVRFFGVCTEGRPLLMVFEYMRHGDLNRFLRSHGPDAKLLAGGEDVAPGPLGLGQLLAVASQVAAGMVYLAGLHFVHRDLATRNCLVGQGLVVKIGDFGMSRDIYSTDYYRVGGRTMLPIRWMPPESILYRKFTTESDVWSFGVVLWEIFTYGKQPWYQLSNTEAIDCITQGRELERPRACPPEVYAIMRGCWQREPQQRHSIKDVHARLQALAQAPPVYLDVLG
How it was run: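 KM12 cells treated with compound at 10 nM or 100 nM for 16 h, lysed in RIPA, and TRK protein measured by immunoblot with TRK-specific antibody and chemiluminescence band quantitation. Percent degradation binned: −, none; +, <50%; ++, ≥50% but <80%; +++, ≥80%.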

T1 sequence (Q16288 32-839): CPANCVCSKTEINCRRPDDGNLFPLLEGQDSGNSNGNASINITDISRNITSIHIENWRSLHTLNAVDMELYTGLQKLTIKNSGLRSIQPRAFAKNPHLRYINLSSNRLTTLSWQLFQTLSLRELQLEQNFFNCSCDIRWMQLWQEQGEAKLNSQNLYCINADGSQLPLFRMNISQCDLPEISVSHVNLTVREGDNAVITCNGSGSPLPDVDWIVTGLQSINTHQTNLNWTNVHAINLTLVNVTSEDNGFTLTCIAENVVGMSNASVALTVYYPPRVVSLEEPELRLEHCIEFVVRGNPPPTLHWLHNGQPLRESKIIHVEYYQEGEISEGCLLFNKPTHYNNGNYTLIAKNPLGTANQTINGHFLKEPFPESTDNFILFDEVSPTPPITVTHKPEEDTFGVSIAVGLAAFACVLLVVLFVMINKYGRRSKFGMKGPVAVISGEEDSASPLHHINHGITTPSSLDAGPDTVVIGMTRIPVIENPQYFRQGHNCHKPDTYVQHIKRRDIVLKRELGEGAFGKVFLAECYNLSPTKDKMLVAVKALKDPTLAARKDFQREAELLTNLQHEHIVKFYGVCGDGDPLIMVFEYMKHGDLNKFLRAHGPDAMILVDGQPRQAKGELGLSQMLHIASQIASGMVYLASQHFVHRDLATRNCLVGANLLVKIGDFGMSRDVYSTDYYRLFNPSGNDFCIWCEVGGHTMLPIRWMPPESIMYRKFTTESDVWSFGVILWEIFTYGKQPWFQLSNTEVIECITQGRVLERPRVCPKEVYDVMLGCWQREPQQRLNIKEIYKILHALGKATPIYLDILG

TRKC protein levels [1]: minimal reduction
TRKB protein levels [2]: minimal reduction
wildtype TRKA protein levels in HEL cells [5]: significantly reduced
inhibition at 0.01 µM ([6]; 10 nM): > 80%
inhibition at 0.1 µM ([6]; 100 nM): > 80%
SMILES: COCCN1C[C@@H](NC(=O)Nc2c(C)c(-c3cnc(N4CCN(CCNc5ccc6c(c5)C(=O)N(C5CCC(=O)NC5=O)C6=O)CC4)nc3)nn2-c2ccccc2)[C@H](c2cccc(F)c2)C1 (stereo partly drawn) [CPD-031, 1-(3-(2-(4-(2-((2-(2,6-dioxopiperidin-3-yl)-1,3-dioxoisoindolin-5-yl)amino)ethyl)piperazin-1-yl)pyrimidin-5-yl)-4-methyl-1-phenyl-1H-pyrazol-5-yl)-3-((3S,4R)-4-(3-fluorophenyl)-1-(2-methoxyethyl)pyrrolidin-3-yl)urea]
IC50 [3]: 2.04 nM
IC50 [4]: 6.11 nM
